According to patent US20070128217A1 (priority 2003, published 2007):

Experiments:
[1] = tested on: antibodies in sera from SARS patients (sera 1a, 1b, 2, 6, 37, 62, London, SARS-yellow, SARS-green); assay type: binding, human; set-up: Binding of serum 6 to linear peptides of protein X1 of SARS-CoV Urbani / Binding of serum 37 to linear peptides of protein X1 of SARS-CoV Urbani / Binding of serum 6 to looped/cyclic peptide (PEPSCAN-ELISA) / Binding of serum 37 to looped/cyclic peptide (PEPSCAN-ELISA) / Binding of serum 37 to looped/cyclic peptides of protein X1 of SARS-CoV Urbani / Binding of serum 6 to linear peptides of protein X2 / Binding of serum 37 to linear peptides of protein X2 / Binding of serum 37 to looped/cyclic peptides of protein X2 of SARS-CoV Urbani / Binding of serum 6 to linear peptides of protein M of SARS-CoV Urbani / Binding of serum 37 to linear peptides of protein M of SARS-CoV Urbani / Binding of serum 6 to looped/cyclic peptides of protein M of SARS-CoV Urbani / Binding of serum 37 to looped/cyclic peptides of protein M of SARS-CoV Urbani / Binding of serum 6 to linear peptides of protein X3 of SARS-CoV Urbani / Binding of serum 37 to linear peptides of protein X3 of SARS-CoV Urbani / Binding of serum 37 to looped/cyclic peptides of protein X3 of SARS-CoV Urbani / Binding of serum 6 to linear peptides of protein X4 of SARS-CoV Urbani / Binding of serum 37 to linear peptides of protein X4 of SARS-CoV Urbani / Binding of serum 37 to looped/cyclic peptides of protein X4 of SARS-CoV Urbani / Binding of serum 6 to linear peptides of protein X5 of SARS-CoV Urbani / Binding of serum 37 to linear peptides of protein X5 of SARS-CoV Urbani / Binding of serum 37 to looped/cyclic peptides of protein X5 of SARS-CoV Urbani / Binding of serum 6 to linear peptides of protein N of SARS-CoV Urbani / Binding of serum 37 to linear peptides of protein N of SARS-CoV Urbani / Binding of serum 6 to linear peptide (PEPSCAN-ELISA) / Binding of serum 1a to looped/cyclic peptides of protein N of SARS-CoV Urbani / Binding of serum 1b to looped/cyclic peptides of protein N of SARS-CoV Urbani / Binding of serum 2 to looped/cyclic peptides of protein N of SARS-CoV Urbani / Binding of serum 6 to looped/cyclic peptides of protein N of SARS-CoV Urbani / Binding of serum 37 to looped/cyclic peptides of protein N of SARS-CoV Urbani / Binding of serum 62 to looped/cyclic peptides of protein N of SARS-CoV Urbani / Binding of serum London to looped/cyclic peptides of protein N of SARS-CoV Urbani / Binding of serum SARS-green to looped/cyclic peptides of protein N of SARS-CoV Urbani: unit not given here
[2] = tested on: rabbit serum obtained by immunizing a rabbit with the SARS-CoV strain Frankfurt 1; assay type: binding; set-up: Binding of a rabbit serum to linear peptides / Binding of a rabbit serum to looped peptides / Rabbit serum linear peptides / Rabbit serum looped peptides / Binding of a rabbit serum to linear peptides of protein N of SARS-CoV Urbani (Rabbit serum linear peptides) / Binding of a rabbit serum to looped/cyclic peptides of protein N of SARS-CoV Urbani (Rabbit serum looped peptides): unit not given here
[3] = tested on: recombinant human anti-SARS-CoV antibody 03-018; assay type: binding; set-up: Binding of antibody 03-018 to linear peptides of the N protein of SARS-CoV Urbani / Binding of antibody 03-018 to looped/cyclic peptides of the N protein of SARS-CoV Urbani: unit not given here
[4] = tested on: control sera (pooled serum of ten healthy LUMC hospital workers; commercial negative donor pooled serum from the Dutch bloodbank); assay type: binding, human; set-up: Binding of Control serum LUMC to linear peptides / Binding of Control serum Blood-bank to linear peptides / Binding of Control serum LUMC to looped peptides / Binding of Control Serum Blood-Bank to Looped peptides / Binding of Control serum LUMC to linear peptides of the protein M of SARS-CoV Urbani / Binding of Control serum Blood-bank to linear peptides of the protein M of SARS-CoV Urbani / Binding of Control serum LUMC to looped peptides of the protein M of SARS-CoV Urbani / Binding of Control Serum Blood-Bank to Looped peptides of the protein M of SARS-CoV Urbani: unit not given here

| Sequence | Binding of serum 1a to linear peptides of protein N of SARS-CoV Urbani [1] | Binding of serum 1a to looped/cyclic peptides of protein N of SARS-CoV Urbani [1] | Binding of serum 1b to linear peptides of protein N of SARS-CoV Urbani [1] | Binding of serum 1b to looped/cyclic peptides of protein N of SARS-CoV Urbani [1] | Binding of serum 2 to linear peptides of protein N of SARS-CoV Urbani [1] | Binding of serum 2 to looped/cyclic peptides of protein N of SARS-CoV Urbani [1] | Binding of serum 6 to linear peptides of protein N of SARS-CoV Urbani [1] | Binding of serum 6 to looped/cyclic peptides of protein N of SARS-CoV Urbani [1] | Binding of serum 37 to linear peptides of protein N of SARS-CoV Urbani [1] | Binding of serum 37 to looped/cyclic peptides of protein N of SARS-CoV Urbani [1] | Binding of serum 62 to linear peptides of protein N of SARS-CoV Urbani [1] | Binding of serum 62 to looped/cyclic peptides of protein N of SARS-CoV Urbani [1] | Binding of serum London to linear peptides of protein N of SARS-CoV Urbani [1] | Binding of serum London to looped/cyclic peptides of protein N of SARS-CoV Urbani [1] | Binding of serum SARS-green to looped/cyclic peptides of protein N of SARS-CoV Urbani [1] | Binding of serum SARS-yellow to looped/cyclic peptides of protein N of SARS-CoV Urbani [1] | Binding of a rabbit serum to linear peptides of protein N of SARS-CoV Urbani (Rabbit serum linear peptides) [2] | Binding of a rabbit serum to looped/cyclic peptides of protein N of SARS-CoV Urbani (Rabbit serum looped peptides) [2] | Binding of antibody 03-018 to linear peptides of the N protein of SARS-CoV Urbani [3] | Binding of antibody 03-018 to looped/cyclic peptides of the N protein of SARS-CoV Urbani [3] | further results |
| --- | --- | --- | --- | --- | --- | --- | --- | --- | --- | --- | --- | --- | --- | --- | --- | --- | --- | --- | --- | --- | --- |
| SRIGMEVTPSGTWLT | 0.2 | 0.3 | 0.1 | 0.2 | 0.2 | 0.4 | 0.2 | 0.2 | 0.7 | 0.5 | 0.6 | 0.5 | 0.5 | 0.4 | 0.5 | 0.4 | 0.1 | 0.4 | 0.1 | 0.2 | Binding of serum SARS-green to linear peptides of protein N of SARS-CoV Urbani [1]: 0.4; Binding of serum SARS-yellow to linear peptides of protein N of SARS-CoV Urbani [1]: 0.6; Control Serum Blood-Bank Looped peptides [4]: 0.6; Control serum Blood-bank linear peptides [4]: 0.8; Control serum LUMC linear peptides [4]: 0.6; Control serum LUMC looped peptides [4]: 0.6 |
| SRSRGNSRNSTPGSS | – | 0.5 | – | 0.4 | – | 0.3 | – | 0.1 | – | 0.3 | – | 0.3 | – | 0.3 | 0.0 | 0.0 | 0.3 | 0.7 | 0.1 | 0.2 | Binding of serum 1a to linear peptide (PEPSCAN-ELISA) [1]: 1.0; Binding of serum 1b to linear peptide (PEPSCAN-ELISA) [1]: 0.6; Binding of serum 2 to linear peptide (PEPSCAN-ELISA) [1]: 0.3; Binding of serum 6 to linear peptide (PEPSCAN-ELISA) [1]: 0.2; Binding of serum 37 to linear peptide (PEPSCAN-ELISA) [1]: 0.7; Binding of serum 62 to linear peptide (PEPSCAN-ELISA) [1]: 0.7; Binding of serum London to linear peptide (PEPSCAN-ELISA) [1]: 0.5; Binding of serum SARS-green to linear peptide (PEPSCAN-ELISA) [1]: 0.4; Binding of serum SARS-yellow to linear peptide (PEPSCAN-ELISA) [1]: 0.6; Binding of Control Serum Blood-Bank to Looped peptides [4]: 0.5; Binding of Control serum Blood-bank to linear peptides [4]: 0.7; Binding of Control serum LUMC to linear peptides [4]: 0.5; Binding of Control serum LUMC to looped peptides [4]: 0.4 |
| SWFTALTQHGKEELR | 0.2 | 0.2 | 0.1 | 0.1 | 0.2 | 0.2 | 0.1 | 0.1 | 0.6 | 0.3 | 0.6 | 0.2 | 0.5 | 0.2 | 0.1 | 0.0 | 0.1 | 0.0 | 0.1 | 0.2 | Binding of serum SARS-green to linear peptides of protein N of SARS-CoV Urbani [1]: 0.2; Binding of serum SARS-yellow to linear peptides of protein N of SARS-CoV Urbani [1]: 0.5; Binding of Control Serum Blood-Bank to Looped peptides [4]: 0.4; Binding of Control serum Blood-bank to linear peptides [4]: 0.6; Binding of Control serum LUMC to linear peptides [4]: 0.7; Binding of Control serum LUMC to looped peptides [4]: 0.3 |
